# From patent US20240140963A1, “FUSED TRICYCLIC CYCLIN-DEPENDENT KINASE INHIBITOR, AND PREPARATION METHOD THEREFOR AND PHARMACEUTICAL USE THEREOF” (Tuojie Biotech (Shanghai) Co., Ltd., priority 2021, published 2024)
# Legend:
# CDK6/cyclin D3 = biological target: T1, CDK6/cyclin D3 (Homo sapiens, UniProt Q00534); test: CDK6/cyclin D3 kinase activity, mobility shift assay; type: biochemical
# T1 construct: purchased Carna 04-107
# Procedure: (§1) In vitro CDK kinase activity was tested using a mobility shift assay.
# (§2) The IC50 values of the compounds were obtained by fitting using XLFit excel add-in version 5.4.0.8. Fitting formula:
# (§3) Y=Bottom+(Top−Bottom)/(1+10^((Log IC50−X)×Hill Slope)). • X: the log value of the compound concentration; Y: the percent inhibition of the compound.
# CDK4/cyclin D1 = biological target: T2, CDK4/cyclin D1 (Homo sapiens, UniProt P11802); test: CDK4/cyclin D1 kinase activity, mobility shift assay; type: biochemical
# T2 construct: purchased ProQinase 0142-0143-1
# Procedure: as §1, §2, §3
# human PXR = biological target: T3, human PXR (Homo sapiens, UniProt O75469); test: PXR induction assay in DPX2 cells (luciferase reporter); type: cell-based
# T3 construct: host or cells: DPX2 (HepG2)
# T3 sequence (O75469 1-434): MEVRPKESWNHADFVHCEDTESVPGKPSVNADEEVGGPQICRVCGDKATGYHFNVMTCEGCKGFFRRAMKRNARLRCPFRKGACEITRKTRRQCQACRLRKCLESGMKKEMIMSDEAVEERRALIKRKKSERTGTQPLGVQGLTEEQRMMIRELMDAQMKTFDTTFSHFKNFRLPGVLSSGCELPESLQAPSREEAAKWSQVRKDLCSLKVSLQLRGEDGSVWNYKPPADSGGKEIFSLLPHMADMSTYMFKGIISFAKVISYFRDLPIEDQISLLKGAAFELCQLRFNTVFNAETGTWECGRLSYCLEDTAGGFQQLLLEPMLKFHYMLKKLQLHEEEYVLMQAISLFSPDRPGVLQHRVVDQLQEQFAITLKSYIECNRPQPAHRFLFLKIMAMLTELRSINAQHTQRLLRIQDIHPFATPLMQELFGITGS
# Procedure: 1. The potential of the test compounds to induce the activity of drug metabolism enzymes by in vitro activating PXR was evaluated.
# 1) DPX2 (HepG2 cells were stably transfected with the human PXR gene and the fluorescent reporter gene) cells were purchased from Puracyp (Carlsbad, CA).
# When covering 80-90% of the bottom of the culture flask, the cells were digested.
# 4) The cell suspension was transferred to a conical-bottomed centrifuge tube and centrifuged at 120 g for 10 min. The cells were suspended in the plating medium and adjusted to a concentration of 4×10^5 cells/mL. 100 μL of diluted cells were added to each well of a 96-well cell culture plate. The culture plate was placed in an incubator and incubated at 37° C. for 24 h before PXR activation assays.
# The final concentration of DMSO was 0.1%. To 1 mL of pre-incubated medium, 1 μL of DMSO was added as a solvent control.
# 2) The cell culture plate was removed from the incubator, and the medium was discarded. 100 μL of each of the test compounds and positive compound was added to an appropriate well in duplicate, and the cell plate was placed in an incubator and incubated for 24 h.
# 1) After […] of drug treatment, quantification of PXR activation could be performed on the culture.
# 2) The CellTiter-Fluor™ cell viability assay kit and the One-Glo luciferase reagent were equilibrated to room temperature. The GF-AFC (10 μL) substrate was added to assay buffer (10 mL) to form 2× reagent, and the reagent was then diluted to 1× with 10 mL of PBS; the ONE-Glo substrate was added to the ONE-Glo luciferase assay buffer.
# 5) The ONE-Glo reagent was poured into a reagent reservoir, and then 50 μL was transferred to each well using a multi-channel pipette. The reagent was gently and well mixed, and the mixture was incubated and well mixed at room temperature for 5 min. After the incubation, the luminescence value of each well was read using a luminometer.
# The luciferase activity was expressed in terms of […], where RLU is the mean luminescence intensity value of two replicates of each concentration of each compound, and RFU is the mean fluorescence intensity of two replicates of each concentration of each compound.
# The calculation formula for induction fold: […]
# [1] = compound concentration 0.123 μM
# T2 sequence (P11802 whole entry): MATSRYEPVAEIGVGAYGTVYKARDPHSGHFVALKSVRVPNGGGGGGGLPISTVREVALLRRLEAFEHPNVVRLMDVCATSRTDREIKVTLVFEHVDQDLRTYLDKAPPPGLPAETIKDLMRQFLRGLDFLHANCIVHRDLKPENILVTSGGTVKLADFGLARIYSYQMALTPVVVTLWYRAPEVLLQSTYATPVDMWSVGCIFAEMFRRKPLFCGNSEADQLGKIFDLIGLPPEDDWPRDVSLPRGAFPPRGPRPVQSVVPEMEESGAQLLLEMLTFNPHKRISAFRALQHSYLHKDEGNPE
# T2 sequence (P24385 whole entry partner): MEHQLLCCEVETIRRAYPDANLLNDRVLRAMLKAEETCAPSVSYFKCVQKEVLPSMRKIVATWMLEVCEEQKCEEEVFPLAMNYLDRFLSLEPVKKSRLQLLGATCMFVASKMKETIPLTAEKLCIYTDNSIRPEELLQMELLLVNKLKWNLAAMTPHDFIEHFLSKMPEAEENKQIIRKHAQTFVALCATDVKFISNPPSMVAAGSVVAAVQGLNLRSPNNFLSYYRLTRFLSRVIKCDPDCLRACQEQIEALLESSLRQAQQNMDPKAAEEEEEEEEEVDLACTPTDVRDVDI
# T1 sequence (Q00534 whole entry): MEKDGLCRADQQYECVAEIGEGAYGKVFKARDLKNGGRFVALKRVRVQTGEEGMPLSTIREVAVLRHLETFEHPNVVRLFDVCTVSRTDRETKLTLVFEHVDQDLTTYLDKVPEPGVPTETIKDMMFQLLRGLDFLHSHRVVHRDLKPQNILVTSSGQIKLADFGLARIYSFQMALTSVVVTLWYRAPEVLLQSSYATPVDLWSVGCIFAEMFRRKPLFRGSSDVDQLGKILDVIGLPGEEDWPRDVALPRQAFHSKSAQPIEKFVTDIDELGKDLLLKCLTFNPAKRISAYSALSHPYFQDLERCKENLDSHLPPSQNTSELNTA
# T1 sequence (P30281 whole entry partner): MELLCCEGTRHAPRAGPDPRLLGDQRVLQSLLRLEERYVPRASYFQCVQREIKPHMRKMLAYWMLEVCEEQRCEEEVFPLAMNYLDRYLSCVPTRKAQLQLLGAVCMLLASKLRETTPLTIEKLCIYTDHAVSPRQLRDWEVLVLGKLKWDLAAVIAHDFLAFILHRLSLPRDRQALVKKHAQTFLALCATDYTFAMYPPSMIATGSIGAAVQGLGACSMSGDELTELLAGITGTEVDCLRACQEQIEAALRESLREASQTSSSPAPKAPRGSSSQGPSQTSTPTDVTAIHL
IC50 (CDK6/cyclin D3) [nM],IC50 (CDK4/cyclin D1) [nM],Induction fold (human PXR; [1]),Induction fold (human PXR; compound concentration 10.0 μM),SMILES
39,2.5,,,"Cc1nc2c(F)cc(-c3nc(N[C@@H]4CCN(S(C)(=O)=O)C[C@H]4O)ncc3Cl)c3c2n1[C@@H](C)CO3 (single isomer, unassigned) [Isomer 1 with a retention time of 2.094 min in Example 2]"
301,11,,,"Cc1nc2c(F)cc(-c3nc(N[C@@H]4CCOC[C@H]4O)ncc3F)c3c2n1[C@@H](C)CO3 (single isomer, unassigned) [Isomer 2 with a retention time of 3.997 min in Example 1]"
,,0.99,1.48,"C[C@@H]1COc2c(-c3nc(N[C@@H]4CCOC[C@H]4O)ncc3Cl)cc(F)c3nc(C(C)(C)O)n1c23 (single isomer, unassigned) [Isomer 2 with a retention time of 1.887 min in Example 4]"
,,0.87,1.43,"C[C@H]1COc2c(-c3nc(N[C@@H]4CCOC[C@H]4O)ncc3Cl)cc(F)c3nc(C(C)(C)O)n1c23 (single isomer, unassigned) [Isomer 1 with a retention time of 2.078 min in Example 4]"
9.1,1.5,,,"Cc1nc2c(F)cc(-c3nc(N[C@@H]4CCN(S(C)(=O)=O)C[C@H]4O)ncc3Cl)c3c2n1[C@@H](C)CO3 (single isomer, unassigned) [Isomer 2 with a retention time of 2.499 min in Example 2]"
64,15,,,"Cc1nc2c(F)cc(-c3nc(N[C@@H]4CCOC[C@H]4O)ncc3Cl)c3c2n1[C@@H](C)CO3 (single isomer, unassigned) [Isomer 1 with a retention time of 3.518 min in Example 3]"
> 1000,26,,,"Cc1nc2c(F)cc(-c3nc(N[C@@H]4CCOC[C@H]4O)ncc3F)c3c2n1[C@@H](C)CO3 (single isomer, unassigned) [Isomer 1 with a retention time of 2.903 min in Example 1]"

SMILES,IC50 (CDK6/cyclin D3) [nM],IC50 (CDK4/cyclin D1) [nM],Induction fold (human PXR; [1]),Induction fold (human PXR; compound concentration 10.0 μM)
CC1COc2c(-c3nc(N[C@@H]4CCOC[C@H]4O)ncc3Cl)cc(F)c3nc(C(C)(C)O)n1c23 (mixture of isomers) [4f (racemate) in Example 4],171,15,,
